Here are results for 17 compounds from EP1383793B1 (priority 2000, dated 2001).

Read-outs that look alike come from different tables or passages of the source. Residues, ends and D or L forms follow the SMILES beside them. No end group written: not given here. *: point of attachment. Biotin = O=C1N[C@H]2[C@H](CS[C@H]2CCCCC(=O)*)N1

Usually IC50 stands for the midpoint of a concentration-inhibition curve. Higher therefore signals weaker potency in that assay.

The target in assay [1] is T1, human insulin receptor (HIR) (Homo sapiens, UniProt P06213).
T1 construct: made in house
T1 sequence (P06213 28-758 limits assumed): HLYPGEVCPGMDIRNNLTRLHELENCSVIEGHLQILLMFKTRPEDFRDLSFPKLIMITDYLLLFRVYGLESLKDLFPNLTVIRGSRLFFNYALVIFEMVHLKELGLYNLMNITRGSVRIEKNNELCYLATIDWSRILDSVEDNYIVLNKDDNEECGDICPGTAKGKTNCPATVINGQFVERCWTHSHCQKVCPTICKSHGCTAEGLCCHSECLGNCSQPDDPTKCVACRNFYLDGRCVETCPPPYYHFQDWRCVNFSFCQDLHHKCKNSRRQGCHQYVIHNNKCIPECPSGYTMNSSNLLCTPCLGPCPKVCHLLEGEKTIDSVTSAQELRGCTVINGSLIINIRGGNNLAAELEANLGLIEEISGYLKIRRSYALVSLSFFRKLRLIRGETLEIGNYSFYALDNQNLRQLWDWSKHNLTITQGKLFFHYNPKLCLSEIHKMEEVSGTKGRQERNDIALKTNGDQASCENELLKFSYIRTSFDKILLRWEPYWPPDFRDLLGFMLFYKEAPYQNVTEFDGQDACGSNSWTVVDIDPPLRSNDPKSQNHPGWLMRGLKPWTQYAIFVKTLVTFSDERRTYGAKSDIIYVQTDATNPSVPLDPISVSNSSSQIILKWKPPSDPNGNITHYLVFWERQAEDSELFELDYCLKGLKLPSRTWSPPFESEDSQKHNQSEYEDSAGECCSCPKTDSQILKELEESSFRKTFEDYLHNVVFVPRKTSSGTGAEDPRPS
T1 sequence (P06213 763-1382 limits assumed): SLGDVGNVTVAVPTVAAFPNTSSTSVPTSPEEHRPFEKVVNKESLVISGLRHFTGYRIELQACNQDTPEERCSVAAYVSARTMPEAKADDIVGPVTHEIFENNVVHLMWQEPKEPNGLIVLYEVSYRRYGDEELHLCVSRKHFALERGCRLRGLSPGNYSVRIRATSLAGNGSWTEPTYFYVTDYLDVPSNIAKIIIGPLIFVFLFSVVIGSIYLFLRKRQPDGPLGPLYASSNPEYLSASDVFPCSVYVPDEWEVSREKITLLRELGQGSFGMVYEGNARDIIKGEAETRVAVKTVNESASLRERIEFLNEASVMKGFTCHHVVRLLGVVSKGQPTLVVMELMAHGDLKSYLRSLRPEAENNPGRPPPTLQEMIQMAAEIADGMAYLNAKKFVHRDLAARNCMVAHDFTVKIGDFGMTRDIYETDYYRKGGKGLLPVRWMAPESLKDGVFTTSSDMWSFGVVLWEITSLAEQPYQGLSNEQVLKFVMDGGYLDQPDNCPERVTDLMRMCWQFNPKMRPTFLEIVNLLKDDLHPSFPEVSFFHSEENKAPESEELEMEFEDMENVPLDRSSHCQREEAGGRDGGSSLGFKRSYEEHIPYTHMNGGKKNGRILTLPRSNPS
Kind of assay: 125I-insulin competition binding assay on solubilised purified receptor.

The target in assay [2] is T2, IGF-1R (Homo sapiens, UniProt P08069).
T2 construct: Soluble IGF-1R was obtained from R&D Systems; purchased R&D Systems 391-GR/CF
Kind of assay: IGF-1R peptide assay, time-resolved FRET, competition with biotinylated 20E2 (IC50). In kind it is binding.
Description: Assays have been developed using Time-Resolved Fluorescence Resonance Energy Transfer (FRET). These assays are not radioactive, homogeneous (no wash steps), and can be rapidly carried out in 96- or 384-well microtiter plate format facilitating their use in high-throughput screening assays for small organic molecules.
The IGF-1R was labeled with Europium (Eu) by EG&G Wallac.
The Streptavidin-Allophycocynanin (SA-APC) was obtained from Prozyme Cat. # PJ25S.
• a. Preparation of the Assay Mix. […] This mixture was allowed to pre-incubate at RT in the dark for 1-2 h before competitor was added. • b. […] 100 µl of Buffer (TBS pH 8.0 + 0.1 % BSA) were dispensed to wells in columns 1 through 11. Competitors and Buffer were added to Column 12 wells so that the total volume is 150 µl. • c. […] Compounds are dissolved in 100% DMSO. Therefore, 100 µl of Buffer (TBS pH 8.0 + 0.1 % BSA) with 4% DMSO are dispensed to wells in columns 1 through 10. […] Compounds (6 µl) are added into 144 µl Buffer (No DMSO) to Column 12 wells. • d. Dilutions were performed across columns on the plate. Once competitors were dispensed into Column 12 and mixed, 50 µl of the solution Column 12 were transferred to wells in 11 and mixed. 50 µl of the Column 11 mixture was transferred to Column 10 wells. This was repeated until 50 µl of Column 3 mixture was transferred to Column 2 wells. Once accomplished to Column 2, 50 µl from Column 2 were removed and discarded. Column 1 wells were reserved for No Competitor Wells. 100 µl volume was therefore maintained across all columns. • e. 50 µl of the Assay Mix was dispensed into wells on a new 96-well microtiter plate. 50 µl from the Dilutions Plate were then added to this plate. • f. […] This covered plate was allowed to incubate at RT overnight. • g. […] Compounds begin at 200 µM in a working concentration of 2% DMSO. Controls also contained 2% DMSO.

In assay [3] the target is human IGF-1 receptor (HIGF-1R) (Homo sapiens, UniProt P08069). Kind of assay: 125I-IGF-1 competition binding assay on solubilised purified receptor.

Regarding EHWNTVDPFYFTLFEWLRESG-NH2 [Clone S177], in assay [1] (read-out: HIR affinity), the Kd came to 2.7 µM. In assay [2], this compound gave an IC50 of 2.04 µM.

The compound `CSCC[C@H](NC(=O)[C@H](CC(C)C)NC(=O)[C@H](CCCNC(=N)N)NC(=O)[C@H](CC(=O)O)NC(=O)[C@H](CC(C)C)NC(=O)[C@H](C)NC(=O)[C@H](CC(=O)O)NC(=O)[C@@H](N)CC(C)C)C(=O)N[C@@H](CCCNC(=N)N)C(=O)N[C@@H](Cc1ccc(O)cc1)C(=O)N[C@@H](Cc1ccccc1)C(=O)N[C@@H](CCC(=O)O)C(=O)N[C@@H](CCC(=O)O)C(=O)N[C@@H](CCCNC(=N)N)C(=O)N1CCC[C@H]1C(=O)N[C@@H](CO)C(=O)N[C@@H](CC(C)C)C(N)=O` [Clone S173] returned an IC50 in assay [2] of 5.62 µM.

On to `CC(C)C[C@H](NC(=O)[C@@H]1CCCN1)C(=O)N[C@@H](C)C(=O)N[C@@H](CCC(=O)O)C(=O)N[C@@H](CC(C)C)C(=O)N[C@@H](Cc1c[nH]c2ccccc12)C(=O)N[C@@H](C)C(=O)N[C@@H](Cc1ccc(O)cc1)C(=O)N[C@@H](Cc1ccccc1)C(=O)N[C@@H](CCC(=O)O)C(=O)N[C@@H](Cc1c[nH]cn1)C(=O)N[C@@H](CO)C(=O)N[C@@H](CCC(=O)O)C(=O)N[C@@H](CCC(N)=O)C(=O)NCC(=O)N[C@@H](CCCNC(=N)N)C(=O)N[C@@H](CO)C(=O)N[C@@H](CO)C(=O)N[C@@H](C)C(=O)N[C@@H](Cc1c[nH]cn1)C(N)=O` [Clone S174], for which, in assay [1] (read-out: HIR affinity), the Kd was 16 µM. The compound also yielded an IC50 in assay [2] of 1.46 µM.

As to NGVERAGTGDNFYDWFVAQLH-NH2 [Clone S176], the Kd in assay [1] (read-out: HIR affinity) is 0.47 µM. Besides, the IC50 in assay [2] came to 0.418 µM.

“TFYSCLASLLTGTPQPNRGPWERCR [20C-3-G3-IGFR]” registered a half-inhibitory concentration (IC50) in assay [2] of 0.184 µM.

Take `CSCC[C@H](NC(=O)[C@H](Cc1ccccc1)NC(=O)[C@H](Cc1c[nH]c2ccccc12)NC(=O)[C@H](CC(=O)O)NC(=O)[C@H](Cc1ccc(O)cc1)NC(=O)[C@H](Cc1ccccc1)NC(=O)[C@H](CC(N)=O)NC(=O)[C@H](CCCCN)NC(=O)[C@H](CC(=O)O)NC(=O)[C@H](C)N)C(=O)N[C@@H](C)C(=O)N[C@@H](C)C(=O)N[C@@H](CCCCN)C(=O)N[C@@H](CCCCNC(=O)CCCC[C@@H]1SC[C@@H]2NC(=O)N[C@@H]21)C(N)=O` [Clone D115] (H-ADKNFYDWFMAAKK(Biotin)-NH2): the values for the Kd in assay [1] (read-out: Kd (µM) HIR) and in assay [3] were 8.1 µM and > 20 µM, respectively.

Turning to AFYDWFAKK-NH2 [Clone S167], in assay [1] (read-out: HIR affinity), the Kd is > 20 µM. Also, the 50% inhibitory concentration (IC50) in assay [2] was ~100 µM.

Take EHWNTVDPFYQYFSELLRESG-NH2 [Clone S178]: in assay [1] (read-out: HIR affinity), the Kd came out at 0.13 µM. In assay [2], this compound had a concentration for half-maximal inhibition (IC50) of 0.24 µM.

`CC(C)C[C@H](NC(=O)[C@H](C)NC(=O)[C@H](Cc1c[nH]c2ccccc12)NC(=O)[C@H](CO)NC(=O)[C@H](Cc1c[nH]cn1)NC(=O)CNC(=O)[C@@H](N)CCCCN)C(=O)N[C@H](C(=O)N[C@@H](CCCNC(=N)N)C(=O)N[C@@H](Cc1c[nH]cn1)C(=O)N[C@H](C(=O)N[C@@H](CC(=O)O)C(=O)N[C@@H](CCCNC(=N)N)C(=O)N[C@@H](CC(C)C)C(=O)N[C@@H](Cc1ccccc1)C(=O)N[C@@H](Cc1ccc(O)cc1)C(=O)N[C@@H](CCC(=O)O)C(=O)N[C@@H](Cc1c[nH]c2ccccc12)C(=O)N[C@@H](Cc1ccccc1)C(=O)N[C@@H](CC(=O)O)C(=O)N[C@@H](CC(C)C)C(=O)N[C@@H](CCCCN)C(=O)N[C@@H](CCCCNC(=O)CCCC[C@@H]1SC[C@@H]2NC(=O)N[C@@H]21)C(N)=O)C(C)C)C(C)C` [Clone D104] (H-KGHSWALVRHVDRLFYEWFDLKK(Biotin)-NH2): the results for the Kd in assay [1] (read-out: Kd (µM) HIR) and in assay [3] were 20 µM and > 20 µM, respectively.

With `CC(C)C[C@H](NC(=O)[C@H](C)NC(=O)[C@H](C)NC(=O)[C@H](CCC(N)=O)NC(=O)[C@@H]1CCCN1C(=O)[C@@H](NC(=O)[C@@H](NC(=O)[C@H](Cc1ccc(O)cc1)NC(=O)[C@H](Cc1c[nH]cn1)NC(=O)[C@H](CO)NC(=O)[C@H](CCC(=O)O)NC(=O)[C@H](CC(C)C)NC(=O)[C@@H](N)CCCCN)C(C)C)C(C)C)C(=O)N[C@@H](CC(=O)O)C(=O)N[C@@H](CCCNC(=N)N)C(=O)N[C@@H](CC(C)C)C(=O)N[C@@H](Cc1ccccc1)C(=O)N[C@@H](Cc1ccc(O)cc1)C(=O)N[C@@H](CO)C(=O)N[C@@H](Cc1c[nH]c2ccccc12)C(=O)N[C@@H](Cc1ccccc1)C(=O)N[C@@H](CO)C(=O)N[C@@H](CCCCN)C(=O)N[C@@H](CCCCNC(=O)CCCC[C@@H]1SC[C@@H]2NC(=O)N[C@@H]21)C(N)=O` [Clone D107] (H-KLESHYVVPQAALDRLFYSWFSKK(Biotin)-NH2), the Kd is 1.1 µM in assay [1] (read-out: Kd (µM) HIR) and 9.7 µM in assay [3].

Take `CC(C)[C@H](NC(=O)[C@H](Cc1ccccc1)NC(=O)[C@H](Cc1c[nH]c2ccccc12)NC(=O)[C@H](CC(=O)O)NC(=O)[C@H](Cc1ccc(O)cc1)NC(=O)[C@H](Cc1ccccc1)NC(=O)[C@H](CC(N)=O)NC(=O)[C@H](CCC(=O)O)NC(=O)[C@H](Cc1c[nH]cn1)NC(=O)[C@H](Cc1ccccc1)NC(=O)[C@@H](N)CCCCN)C(=O)N[C@@H](CCCNC(=N)N)C(=O)N[C@@H](CCC(N)=O)C(=O)N[C@H](C(=O)N[C@@H](CO)C(=O)N[C@@H](CCCCN)C(=O)N[C@@H](CCCCNC(=O)CCCC[C@@H]1SC[C@@H]2NC(=O)N[C@@H]21)C(N)=O)C(C)C` [Clone D117K]: the results for the Kd in assay [1] (read-out: Kd (µM) HIR) and in assay [3] were 0.82 µM and 9.1 µM, respectively.

Regarding `CC(C)C[C@H](NC(=O)CNC(=O)[C@H](CC(=O)O)NC(=O)[C@H](CCC(N)=O)NC(=O)[C@H](CCCCN)NC(=O)[C@H](CC(N)=O)NC(=O)[C@H](CO)NC(=O)[C@@H](NC(=O)[C@H](CC(C)C)NC(=O)CNC(=O)[C@@H]1CCCN1C(=O)[C@H](C)NC(=O)[C@H](CO)NC(=O)[C@@H](N)CCCCN)C(C)C)C(=O)N[C@@H](Cc1ccccc1)C(=O)N[C@@H](Cc1ccc(O)cc1)C(=O)N[C@@H](CO)C(=O)N[C@@H](Cc1c[nH]c2ccccc12)C(=O)N[C@@H](Cc1ccccc1)C(=O)N[C@@H](CCCNC(=N)N)C(=O)N[C@@H](CCC(=O)O)C(=O)N[C@@H](CCCCN)C(=O)N[C@@H](CCCCNC(=O)CCCC[C@@H]1SC[C@@H]2NC(=O)N[C@@H]21)C(N)=O` [Clone D109] (H-KSAPGLVSNKQDGLFYSWFREKK(Biotin)-NH2), the Kd worked out at 3.6 µM in assay [1] (read-out: Kd (µM) HIR) and 12 µM in assay [3].

On to `C[C@@H](O)[C@H](NC(=O)[C@@H]1CCCN1C(=O)[C@H](CCCCN)NC(=O)[C@H](CC(=O)O)NC(=O)[C@H](CCCNC(=N)N)NC(=O)[C@@H](N)CCCCN)C(=O)N[C@@H](CC(=O)O)C(=O)N[C@@H](CCC(N)=O)C(=O)N[C@@H](CCC(=O)O)C(=O)N[C@@H](CCC(=O)O)C(=O)N[C@@H](CCC(N)=O)C(=O)N[C@@H](CC(N)=O)C(=O)N[C@@H](Cc1c[nH]c2ccccc12)C(=O)N[C@@H](CO)C(=O)N[C@@H](Cc1ccccc1)C(=O)N[C@@H](Cc1ccc(O)cc1)C(=O)N[C@@H](CCC(=O)O)C(=O)N[C@@H](Cc1c[nH]c2ccccc12)C(=O)N[C@@H](Cc1ccccc1)C(=O)N[C@@H](CCCNC(=N)N)C(=O)N[C@@H](Cc1c[nH]cn1)C(=O)N[C@@H](CCCCN)C(=O)N[C@@H](CCCCNC(=O)CCCC[C@@H]1SC[C@@H]2NC(=O)N[C@@H]21)C(N)=O` [Clone D105] (H-KRDKPTDQEEQNWSFYEWFRHKK(Biotin)-NH2), for which the Kd amounted to 2.8 µM in assay [1] (read-out: Kd (µM) HIR) and 12 µM in assay [3].

On to `CC(C)C[C@H](NC(=O)[C@H](CCC(N)=O)NC(=O)[C@H](CCCNC(=N)N)NC(=O)[C@H](CO)NC(=O)[C@H](Cc1ccccc1)NC(=O)[C@H](Cc1c[nH]c2ccccc12)NC(=O)CNC(=O)[C@H](Cc1ccc(O)cc1)NC(=O)[C@H](Cc1ccccc1)NC(=O)[C@@H](N)CCCCN)C(=O)N[C@@H](CO)C(=O)N[C@@H](CC(C)C)C(=O)N[C@H](C(=O)N1CCC[C@H]1C(=O)N[C@@H](CCCNC(=N)N)C(=O)N[C@@H](CC(=O)O)C(=O)N[C@@H](CC(=O)O)C(=O)N[C@@H](Cc1c[nH]c2ccccc12)C(=O)NCC(=O)N[C@@H](CC(C)C)C(=O)N1CCC[C@H]1C(=O)N[C@@H](CCCCN)C(=O)N[C@@H](CCCCNC(=O)CCCC[C@@H]1SC[C@@H]2NC(=O)N[C@@H]21)C(N)=O)[C@@H](C)O` [Clone D108] (H-KFYGWFSRQLSLTPRDDWGLPKK(Biotin)-NH2), for which the figures for the Kd in assay [1] (read-out: Kd (µM) HIR) and in assay [3] were 2.3 µM and 19 µM, respectively.

As to QSDSGTVHDRFYGWFRDTWAS-NH2 [Clone S179], in assay [1] (read-out: HIR affinity), the Kd stood at 0.54 µM. For the same compound, in assay [2], the concentration for half-maximal inhibition (IC50) turned out to be 5.35 µM.

On to `CC(C)[C@H](NC(=O)[C@H](Cc1ccccc1)NC(=O)[C@H](Cc1c[nH]c2ccccc12)NC(=O)[C@H](CC(=O)O)NC(=O)[C@H](Cc1ccc(O)cc1)NC(=O)[C@H](Cc1ccccc1)NC(=O)[C@H](CC(N)=O)NC(=O)[C@H](CCCCN)NC(=O)[C@H](C)NC(=O)[C@@H](N)CO)C(=O)N[C@@H](CCCCN)C(=O)N[C@@H](CCCCNC(=O)CCCC[C@@H]1SC[C@@H]2NC(=O)N[C@@H]21)C(N)=O` [Clone D114] (H-SAKNFYDWFVKK(Biotin)-NH2), for which the Kd in assay [1] (read-out: Kd (µM) HIR) is 8.1 µM; in assay [3] it was > 20 µM.

For the compound `CC(C)C[C@H](NC(=O)[C@H](CCC(N)=O)NC(=O)[C@H](CCC(N)=O)NC(=O)[C@H](CO)NC(=O)[C@H](CCCNC(=N)N)NC(=O)[C@H](CS)NC(=O)[C@H](CC(N)=O)NC(=O)[C@H](Cc1c[nH]c2ccccc12)NC(=O)[C@H](Cc1ccccc1)NC(=O)[C@@H](NC(=O)[C@@H](N)CCCCN)C(C)C)C(=O)N[C@@H](CC(=O)O)C(=O)N[C@@H](Cc1ccccc1)C(=O)N[C@@H](Cc1ccc(O)cc1)C(=O)N[C@@H](CCC(=O)O)C(=O)N[C@@H](Cc1c[nH]c2ccccc12)C(=O)N[C@@H](Cc1ccccc1)C(=O)N[C@@H](CCC(=O)O)C(=O)N[C@@H](CCC(N)=O)C(=O)N[C@@H](C)C(=O)N[C@@H](C)C(=O)N[C@@H](CCCCN)C(=O)N[C@@H](CCCCNC(=O)CCCC[C@@H]1SC[C@@H]2NC(=O)N[C@@H]21)C(N)=O` [Clone D106] (H-KVFWNCRSQQLDFYEWFEQAAKK(Biotin)-NH2), the results for the Kd in assay [1] (read-out: Kd (µM) HIR) and in assay [3] were 0.97 µM and 6.2 µM, respectively.
